Data taken from patent publication US4737494A, “1,3-dithiole derivatives and pharmaceutical compositions” (priority 1984, dated 1988).

Test system: acute liver injury induced by carbon tetrachloride
Assay: Protective effect on acute liver injury induced by carbon tetrachloride (mice, oral): plasma GPT activity and BSP retention
Type: in vivo, mice (ddY, male)
Settings: 6 h before CCl4 (0.05 ml/kg p.o.); for GPT activity: plasma; for Retained BSP: plasma 30 min after BSP 75 mg/kg i.v.
Description: 1. Protective Effect on Acute Liver Injury Induced by Carbon Tetrachloride
A test compound was dissolved or suspended in olive oil and administered orally to mice (ddY mice, .male., 23±2 g, n=5). After 6 hours, carbon tetrachloride (0.05 ml/kg) was administered orally. 24 Hours after the administration of carbon tetrachloride, BSP (sodium sulfobromophthalein; 75 mg/kg) was administered intravenously. Thirty minutes later, the cardiac blood was collected, and GPT (glutamic-pyruvic transaminase) activity and the retention rate of BSP in the plasma were measured.

Structure (SMILES)	GPT activity (1 mg/kg)	Retained BSP (1 mg/kg)	GPT activity (5 mg/kg)	Retained BSP (5 mg/kg)
CCOC(=O)C[N+](C)=c1sccs1.[O-][Cl+3]([O-])([O-])[O-] [Compound No. 1, N-(1,3-dithiol-2-ylidene)-N-methyl-N-ethoxycarbonylmethylammonium perchlorate]	3280 ± 399 Karmen units	53.2 ± 11.4 µg/mL	183 ± 74 Karmen units	18.4 ± 1.3 µg/mL
CNC(=O)C[N+](C)=c1sccs1 [Compound No. 3, N-(1,3-dithiol-2-ylidene)-N-methyl-N-(N'-methylcarbamoylmethyl)ammonium perchlorate]	3740 ± 430 Karmen units	67.1 ± 14.3 µg/mL	541 ± 101 Karmen units	27.1 ± 10.1 µg/mL
C[N+](CCC#N)=c1sccs1.[I-] [Compound No. 4, N-(1,3-dithiol-2-ylidene)-N-methyl-N-(2-cyanoethyl)ammonium iodide]	2535 ± 158 Karmen units	42.6 ± 2.3 µg/mL	543 ± 92 Karmen units	29.4 ± 11.1 µg/mL
C[N+](=c1sccs1)C1CCCCC1.[O-][Cl+3]([O-])([O-])[O-] [Compound No. 7, N-(1,3-dithiol-2-ylidene)-N-methyl-N-cyclohexylammonium perchlorate]	4920 ± 670 Karmen units	120.1 ± 17.1 µg/mL	1400 ± 77 Karmen units	57.1 ± 5.1 µg/mL
C[N+](c1ccccc1)=c1sccs1.[O-][Cl+3]([O-])([O-])[O-] [Compound No. 8, N-(1,3-dithiol-2-ylidene)-N-methyl-N-phenylammonium perchlorate]	2394 ± 193 Karmen units	39.3 ± 10.7 µg/mL	117 ± 28 Karmen units	11.6 ± 1.5 µg/mL
Cc1cccc([N+](C)=c2sccs2)c1.[O-][Cl+3]([O-])([O-])[O-] [Compound No. 9, N-(1,3-dithiol-2-ylidene)-N-methyl-N-(m-tolyl)ammonium perchlorate]	2250 ± 325 Karmen units	73.1 ± 14.7 µg/mL	191 ± 71 Karmen units	21.4 ± 2.1 µg/mL
C[N+](Cc1ccccc1)=c1sccs1.[O-][Cl+3]([O-])([O-])[O-] [Compound No. 10, N-(1,3-dithiol-2-ylidene)-N-methyl-N-benzylammonium perchlorate]	1865 ± 106 Karmen units	29.5 ± 6.0 µg/mL	108 ± 27 Karmen units	16.6 ± 1.6 µg/mL
C=CC[N+](CC=C)=c1sccs1.[O-][Cl+3]([O-])([O-])[O-] [Compound No. 12, N-(1,3-dithiol-2-ylidene)-N,N-diallylammonium perchlorate]	5438 ± 401 Karmen units	109.3 ± 14.8 µg/mL	1241 ± 103 Karmen units	25.4 ± 5.0 µg/mL
[O-][Cl+3]([O-])([O-])[O-].c1ccc(C[N+](Cc2ccccc2)=c2sccs2)cc1 [Compound No. 16, N-(1,3-dithiol-2-ylidene)-N,N-dibenzylammonium perchlorate]	4121 ± 311 Karmen units	107.4 ± 13.9 µg/mL	1017 ± 37 Karmen units	21.8 ± 6.0 µg/mL
COC(=O)CC(C(=O)OC)[N+](C)=c1sccs1.[O-][Cl+3]([O-])([O-])[O-] (stereo not shown) [Compound No. 17, N-(1,3-dithiol-2-ylidene)-N-methyl-N-(1,2-dimethoxycarbonylethyl)ammonium perchlorate]	4760 ± 298 Karmen units	135 ± 8.9 µg/mL	3883 ± 324 Karmen units	86 ± 11.1 µg/mL
CC(C)CC(C(=O)OC(C)C)[N+](C)=c1sccs1.[O-][Cl+3]([O-])([O-])[O-] (stereo not shown) [Compound No. 18, N-(1,3-dithiol-2-ylidene)-N-methyl-N-(3-methyl-1-isopropoxycarbonylbutyl)ammonium perchlorate]	4100 ± 615 Karmen units	106.9 ± 17.5 µg/mL	3250 ± 365 Karmen units	44.1 ± 5.2 µg/mL
[O-][Cl+3]([O-])([O-])[O-].c1csc(=[N+]2CCOCC2)s1 [Compound No. 26, 4-(1,3-dithiol-2-ylidene)morpholinium perchlorate]	483 ± 178 Karmen units	21.6 ± 2.7 µg/mL	113 ± 32 Karmen units	13.8 ± 2.5 µg/mL
[O-][Cl+3]([O-])([O-])[O-].c1csc(=[N+]2CCCCC2)s1 [Compound No. 34, 1-(1,3-dithiol-2-ylidene)piperidinium perchlorate]	512 ± 205 Karmen units	26.5 ± 8.0 µg/mL	116 ± 39 Karmen units	15.6 ± 3.0 µg/mL
[O-][Cl+3]([O-])([O-])[O-].c1csc(=[N+]2CCCC2)s1 [Compound No. 35, 1-(1,3-dithiol-2-ylidene)pyrrolidinium perchlorate]	4239 ± 816 Karmen units	101.2 ± 22.6 µg/mL	2472 ± 820 Karmen units	35.8 ± 12.4 µg/mL
CCOC(=O)C1CCC[N+]1=c1sccs1.[Cl-] (stereo not shown) [Compound No. 42, 1-(1,3-dithiol-2-ylidene)-2-ethoxycarbonyl pyrrolidinium chloride]	1673 ± 214 Karmen units	53.1 ± 6.3 µg/mL	231 ± 43 Karmen units	21.4 ± 3.5 µg/mL
NC(=O)C1CCC[N+]1=c1sccs1.[I-] (stereo not shown) [Compound No. 44, 1-(1,3-dithiol-2-ylidene)-2-carbamoylpyrrolidinium iodide]	6311 ± 867 Karmen units	134.7 ± 21.7 µg/mL	5213 ± 716 Karmen units	119.4 ± 11.8 µg/mL
CCCCCCC1CCC[N+]1=c1sccs1.[O-][Cl+3]([O-])([O-])[O-] (stereo not shown) [Compound No. 45, 1-(1,3-dithiol-2-ylidene)-2-(n-hexyl)pyrrolidinium perchlorate]	4264 ± 521 Karmen units	110 ± 20.5 µg/mL	1072 ± 282 Karmen units	76 ± 6.3 µg/mL
[O-][Cl+3]([O-])([O-])[O-].c1ccc(C2CCC[N+]2=c2sccs2)cc1 (stereo not shown) [Compound No. 46, 1-(1,3-dithiol-2-ylidene)-2-phenylpyrrolidinium perchlorate]	3978 ± 627 Karmen units	101 ± 17.4 µg/mL	1040 ± 121 Karmen units	69 ± 7.1 µg/mL
CC1CCC[N+](=c2sccs2)C1.[O-][Cl+3]([O-])([O-])[O-] (stereo not shown) [Compound No. 52, 1-(1,3-dithiol-2-ylidene)-3-methylpiperidinium perchlorate]	2391 ± 325 Karmen units	87.1 ± 13.4 µg/mL	138 ± 18 Karmen units	17.8 ± 4.9 µg/mL
